Laboratory results reported in article PMC3117126 (Journal of medicinal chemistry, 2011).
Counter-ions that a name gives are not always drawn.

How the values were obtained:
human P2Y4 receptor [1] = biological target: T1, human P2Y4 receptor (Homo sapiens, UniProt P51582); assay: PLC activation; assay type: cell-based; conditions: for selectivity for human P2Y4 over P2Y2 and P2Y6 receptors: over both P2Y2 and P2Y6
human P2Y2 receptor = human P2Y2 receptor (Homo sapiens, UniProt P41231); assay: PLC activation; assay type: cell-based; conditions: for effect at 10 µM, hP2Y2: printed in EC50 column, NE = no effect at 10 µM
Sequence of human P2Y2 receptor (P41231 whole entry): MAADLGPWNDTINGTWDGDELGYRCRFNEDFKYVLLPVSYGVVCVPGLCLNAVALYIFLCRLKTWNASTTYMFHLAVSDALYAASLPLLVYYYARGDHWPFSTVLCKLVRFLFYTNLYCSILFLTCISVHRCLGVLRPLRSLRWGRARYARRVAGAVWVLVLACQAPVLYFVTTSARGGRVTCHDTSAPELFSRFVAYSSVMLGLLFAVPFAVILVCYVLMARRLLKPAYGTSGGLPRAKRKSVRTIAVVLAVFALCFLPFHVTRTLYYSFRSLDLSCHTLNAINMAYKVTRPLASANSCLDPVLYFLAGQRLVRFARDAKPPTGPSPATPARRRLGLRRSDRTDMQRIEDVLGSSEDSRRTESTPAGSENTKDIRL

[2] = Chemical stability: hydrolysis at 37°C and pH 1.5, HPLC; assay type: physicochemical; conditions: pH 1.5, 0.2 mg/mL, compared with 1 (UTP)
human P2Y4 receptor [3] = biological target: T1, human P2Y4 receptor; conditions: cited from earlier work

T1 sequence (P51582 whole entry): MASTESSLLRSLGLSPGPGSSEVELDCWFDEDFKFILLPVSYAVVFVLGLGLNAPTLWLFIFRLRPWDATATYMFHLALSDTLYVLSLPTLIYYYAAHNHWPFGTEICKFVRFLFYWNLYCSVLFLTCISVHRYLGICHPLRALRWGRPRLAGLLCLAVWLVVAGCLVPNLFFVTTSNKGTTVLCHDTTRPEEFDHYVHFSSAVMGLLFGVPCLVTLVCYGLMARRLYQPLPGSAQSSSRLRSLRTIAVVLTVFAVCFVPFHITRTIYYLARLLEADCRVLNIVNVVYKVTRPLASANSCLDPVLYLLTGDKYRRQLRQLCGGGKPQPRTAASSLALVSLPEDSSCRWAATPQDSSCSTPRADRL

With O=c1[nH]/c(=N\OCCCc2ccccc2)ccn1[C@@H]1O[C@H](COP(=O)(O)OP(=O)(O)OP(=O)(O)O)[C@@H](O)[C@H]1O [Compound 16, N^4-Phenylpropoxycytidine-5′-triphosphate triethylammonium salt] the “selectivity for human P2Y4 over P2Y2 and P2Y6 receptors” value (“selectivity for human P2Y4” for short) (human P2Y4 receptor [1]) was at least 10 fold.

For O=c1ccn([C@@H]2O[C@H](COP(=O)(O)OP(=O)(O)OP(=O)(O)OP(=O)(O)O[C@H]3OC[C@@H](O)[C@H](O)[C@H]3O)[C@@H](O)[C@H]2O)c(=O)[nH]1 [Compound 30, Uridine-5′-xylose-1′-tetraphosphate triethylammonium salt], the “reduction in potency at P2Y2 receptor relative to 8” value (human P2Y2 receptor; fold less potent than 8) was 9 fold.

With O=c1ccn([C@@H]2O[C@H](COP(=O)(O)OP(=O)(O)OP(=O)(O)OP(=O)(O)O[C@H]3O[C@H](CO)[C@@H](O)[C@H](O)[C@H]3O)[C@@H](O)[C@H]2O)c(=O)[nH]1 [Compound 8, Up4-[1]glucose, reference compound] the “stability at pH 1.5” value [2] was “less stable at pH 1.5 than 1”.

For [N-]=[N+]=N[C@@H]1[C@H](O)[C@@H](COP(=O)(O)OP(=O)(O)OP(=O)(O)O)O[C@H]1n1ccc(=O)[nH]c1=O [Compound 3], the “selectivity for the P2Y4 receptor in comparison to the P2Y2 receptor” value (human P2Y4 receptor [3]) is given as 5 fold.

For O=c1[nH]/c(=N\OCCc2ccccc2)ccn1[C@@H]1O[C@H](COP(=O)(O)OP(=O)(O)OP(=O)(O)O)[C@@H](O)[C@H]1O [Compound 15, N^4-Phenylethoxycytidine-5′-triphosphate triethylammonium salt], the “selectivity for human P2Y4” value (human P2Y4 receptor [1]) was at least 10 fold.

With COc1ccc(OP(=O)(O)OP(=O)(O)OP(=O)(O)OP(=O)(O)OC[C@H]2O[C@@H](n3ccc(=O)[nH]c3=O)[C@H](O)[C@@H]2O)cc1 [Compound 22, Uridine-5′-(4-methoxyphenyl)-tetraphosphate triethylammonium salt] the “effect at 10 µM, hP2Y2” value (human P2Y2 receptor) was at most 50% at 10 µM.

With O=c1ccn([C@@H]2O[C@H](COP(=O)(O)OP(=O)(O)OP(=O)(O)OP(=O)(O)Oc3ccc([N+](=O)[O-])cc3)[C@@H](O)[C@H]2O)c(=O)[nH]1 [Compound 24, Uridine-5′-(4-nitrophenyl)-tetraphosphate triethylammonium salt] the “effect at 10 µM, hP2Y2” value (human P2Y2 receptor) was “abolished activity”.

For COc1cccc(OP(=O)(O)OP(=O)(O)OP(=O)(O)OP(=O)(O)OC[C@H]2O[C@@H](n3ccc(=O)[nH]c3=O)[C@H](O)[C@@H]2O)c1 [Compound 23, Uridine-5′-(3-methoxyphenyl)-tetraphosphate triethylammonium salt], the “effect at 10 µM, hP2Y2” value (human P2Y2 receptor) was at most 50% at 10 µM.

In the case of O=c1ccn([C@@H]2O[C@H](COP(=O)(O)OP(=O)(O)C(Cl)(Cl)P(=O)(O)OP(=O)(O)O[C@H]3O[C@H](CO)[C@@H](O)[C@H](O)[C@H]3O)[C@@H](O)[C@H]2O)c(=O)[nH]1 [Compound 26, Uridine-5′-glucose-1′-β,γ-dichloromethylene tetraphosphate triethylammonium salt], the “effect at 10 µM, hP2Y2” value (human P2Y2 receptor) is reported as at most 50% at 10 µM.

For O=c1ccn([C@@H]2O[C@H](COP(=O)(O)OP(=O)(O)OP(=O)(O)OP(=O)(O)O[C@H]3O[C@H](CO)[C@@H](O)[C@H](F)[C@H]3O)[C@@H](O)[C@H]2O)c(=O)[nH]1 [Compound 34, P^1-(Uridine-5′-)P^4-(3′-deoxy-3′-fluoroglucose-1′-)tetraphosphate triethylammonium salt], the “stability at pH 1.5” value [2] was “much more labile” and the “selectivity for human P2Y4” value (human P2Y4 receptor [1]) was at least 10 fold.

For O=c1ccn([C@@H]2O[C@H](COP(=O)(O)OP(=O)(O)OP(=O)(O)OP(=O)(O)O[C@H]3O[C@H](CO)[C@@H](O)[C@@H](O)[C@H]3O)[C@@H](O)[C@H]2O)c(=O)[nH]1 [Compound 28, Uridine-5′-allose-1′-tetraphosphate triethylammonium salt], the “increase in P2Y4 receptor potency relative to Up4-[1]glucose 8” value (human P2Y4 receptor [1]; compared with 8) was 11 fold.
